The values that follow come from patent US9359405B2, “Antagonists of the interleukin-1 receptor” (Phlogo ApS, priority 2011, dated 2016).

No end group written: not given here.

Data set [1] in a line: Peptide solubility on reconstitution. The class given is physicochemical. The source says: Upon receiving the peptides from the synthesizing company (as powder), they were reconstituted in water, in PBS or in medium. Thus it is immediately apparent whether a peptide is soluble or not.
The subject of data set [2] is NF-κB activated by IL1β (IL1RI signaling), HEK-Blue IL1β cells. The data set is described as follows: IL1RI signaling assay, HEK-Blue IL1β reporter cells (NF-κB/SEAP). The conditions noted are these: IL1β 1.2 μM. Format: cell-based. From the text: (§1) IL1RI signaling assay: Commercially available Blue™ Cytokine Reporter Cell technology from InvivoGen (Denmark distributor: Sigma-Aldrich Denmark) was used. It is represented by an expanding family of engineered cell lines designed to provide a simple, rapid, and reliable method of monitoring the activation of signaling pathways induced by key cytokines. HEK-Blue™ IL1β cells are specifically engineered to selectively respond to IL1β, and they feature the secreted embryonic alkaline phosphatase (SEAP) reporter gene under the control of an NF-κB-inducible promoter. […] A target/receptor-specificity of the Ilantafin effect was verified employing HEK-Blue™ IL6 cells.

Data set [3] has as its system IL1β-activated AMJ2-C8 macrophage cells. The data set is described as follows: TNFα secretion by IL1β-activated macrophages (L929/MTS bioassay). Format: cell-based. The conditions noted are these: IL1β 1.2 μM. The protocol: The Ilantafin peptide or IL1Ra or IL1RI was added to cultures of macrophages (AMJ2-C8) seeded in 6-well multi-dishes (Nunc) (2.5×10^5 cells/well). After 24 h of incubation at 37° C., IL1β (1.2 μM) was added to the cultures to activate the macrophages. L929 cells were seeded in a 96-well plate at a density of 2×10^5 cells/mL. Both cell cultures were incubated for 24 h at 37° C. Conditioned medium from the macrophage cultures was collected and added to the fibroblast cultures together with 0.6 μg/well actinomycin. D (Sigma-Aldrich). Finally, after 24 h of incubation at 37° C., 20 μl of 3-(4,5-dimethylthiazol-2-yl)-5-(3-carboxymethoxyphenyl)-2-(4-sulfophenyl)-2H-tetrazolium (MTS) (Promega, Madison, Wis., USA) was added to each well and the plates were incubated protected from light, at 37° C., for ˜45 min and the optical density was measured at 490 nm in a Sunrise absorbance reader (Tecan, Männedorf, Switzerland). In order to calculate the amount of TNF-α in the conditioned medium, a standard curve was obtained by treating fibroblasts with different concentrations of TNF-α (R&D systems, Minneapolis, Minn., USA).

For data set [4], the system named is cerebellar granule neurons. Briefly: Neurite outgrowth in primary cerebellar granule neurons. The conditions noted are these: for neurite outgrowth: 24 h, primary cerebellar neurons. The class given is cell-based, rat. The protocol: Cerebellar granular neurons (CGN) were prepared from 3 or 7 postnatal (P) day Wistar rats (Charles River, Sulzfeld, Germany or Taconic, Ejby, Denmark). Cerebella were cleared of meninges and blood vessels, roughly homogenized by chopping, and trypsinized with trypsin from Sigma-Aldrich (Brøndby, Denmark). The neurons were washed in the presence of DNAse 1 and soybean trypsin inhibitor (Sigma-Aldrich), and cellular debris was pelleted by centrifugation before plating. CGNs were plated at a density of 10,000 cells/well onto uncoated eight-well Lab-Tek chamber slides (NUNC, Slangerup, Denmark) in Neurobasal-A medium supplemented with 0.4% (w/v) BSA. Peptides or proteins at various concentrations were added to the medium immediately after plating, and cells were maintained at 37° C. and 5% CO2 for 24 h. Cultures then were fixed, blocked and incubated with polyclonal rabbit antibody against rat GAP-43 (Chemicon, Temecula, Calif., USA) followed by incubation with secondary Alexa Fluor488 goat anti-rabbit antibody (Molecular Probes, Eugene, Oreg., USA) as previously described (Neiiendam et al., 2004). The immunostained cultures were all recorded by computer-assisted fluorescence microscopy using a Nikon Diaphot inverted microscope (Nikon, Japan) equipped with a Nikon Plane 20× objective. Images were captured with a charge-coupled device video camera (Grundig Electronics, Nurnberg, Germany) using the software package Prima developed at the Protein Laboratory (University of Copenhagen, Copenhagen, Denmark). The length of neuronal processes per cell was estimated using the software package Process Length developed at the Protein Laboratory (Ronn et al. 2000). For estimation of neurite outgrowth, at least 200±20 cells were processed for each group in each individual experiment.

Data set [5] deals with T1, IL1RI (Homo sapiens, UniProt P14778).
T1 construct: The recombinant protein comprising the whole extracellular part of IIL1RI was immobilised on the surface of a CM5 sensor chip
The data set is described as follows: Kb (s^-1). From the text:
(§2) Table printed on a drawing sheet, Figure 3
Head of the field: Kb (s^-1)
(§3) First copying reader's note: Rate and affinity constants for binding to IL1RI; each cell holds the value with its ± error, and Ilantafin is a peptide while ILRa and IL1β are proteins.

Data set [6] addresses T1, IL1RI. Briefly: ka (M^-1s^-1).
Source text: as §2
Head of the field: ka (M^-1s^-1)
as §3

The test system of data set [7] is STAT signalling induced by IL6, HEK-Blue IL6 cells. The data set is described as follows: Target specificity, HEK-Blue IL6 cells. Format: cell-based.
Source text: as §1

The test system of data set [8] is cerebellar granule neurons. The data set is described as follows: Survival assay, cerebellar granule neurons, low-potassium apoptosis. The class given is cell-based, rat. The conditions noted are these: 5 mM KCl, 2 days. How it is done:
Survival assay: Primary cultures of CGN were plated at a density of 100,000 cells/cm2 on poly-L-lysine coated 8-well permanox slides in Neurobasal-A medium (Gibco BRL) supplemented with 2% (v/v) B27, 0.5% (v/v) glutamax, 100 units/mL penicillin, 100 µg/mL streptomycin and KCl, making the final concentration of KCl in the medium 40 mM. 24 hours after plating, cytosine-b-D-arabinofuranoside (Ara-C; Sigma-Aldrich) was added to a final concentration of 10 μM to avoid proliferation of glial cells, after which the neurons were allowed to differentiate for a further 6 days at 37° C. Apoptotic cell death was induced by washing twice and changing the medium to Basal Medium Eagle (BME; Gibco BRL) supplemented with 1% (v/v) glutamine, 100 U/mL penicillin and 100 µg/mL streptomycin, 3.5 g D-glucose/L and 1% (v/v) sodium pyruvate (Gibco BRL) together with various concentrations of peptide. Thereby the concentration of potassium in the cultures was reduced to 5 mM KCl (Ditlevsen et al., 2003). Two days after induction of apoptosis, the cells were fixed with 4% (v/v) formaldehyde and stained with Hoechst 33258 as described for the survival assay employing hippocampal neurons.

The subject of data set [9] is collagen-induced arthritis (CIA). The data set is described as follows: Collagen-induced arthritis in rats, treatment from day 15 (Example 7). The class given is in vivo, rat. The conditions noted are these: 3.3 and 10 mg/kg s.c. daily from day 15. From the text: Rheumatoid arthritis is a chronic, inflammatory, systemic autoimmune disease that affects about 1% of the general population in Western countries. Collagen-induced arthritis (CIA) in rats is a widely employed animal model for the screening of anti-inflammatory compounds. Collagen bovine, type II (CII, Cat.no.20021, Lot 090209, Chondrex, USA), Complete Freund's Adjuvant, containing 0.1% of Mycobacterium tuberculosis (CFA, Cat.no. F5581, Lot 049K8700, Sigma-Aldrich), Incomplete Freund's Adjuvant (IFA, Cat.no. F5506, Lot 058K8702, Sigma). PBS (Panum Institute, Copenhagen University). Isofluran (Baxter). Animals were immunized twice: on day 0 (CII+CFA) and on day 10 (CII+IFA, booster). On day 15 the mean clinical score reached a value of 5.0 and all animals were divided into 3 groups so that the severity of disease (mean clinical score) in all groups was almost equal. The peptide (two doses, 3.3 and 10 mg/kg) was administered subcutaneously daily starting at day 15. The clinical evaluation of the arthritis severity was assessed using the following grading system: O— no redness or swelling in foot and palm; 1—slight swelling or redness in metatarsophalangeal joint and ankle joint foot or palm; 2—progressed swelling/inflammation and redness from ankle to mid foot or in entire palm; 3—swelling/inflammation of entire foot except toes; 4—swelling and inflammation of entire foot including toes.

On to AGYLQGPNVN-OH [Ilantafin-2], for which, in data set [1], the “solubility in PBS or medium” value is “not soluble in PBS or medium” and the solubility in water result was “soluble in water”.
For “AQMKSSKRGS (listed as Homo sapiens) [Ilantafin rev-d, reference compound]”, in [2], the “inhibition of NF-κB activation induced by IL1β” value was “neither two peptides with scrambled sequences, Ilantafin scr-d1 (KQSAGKRSMS) (SEQ ID NO:39), Ilantafin scr-d2 (KASQKGMSRS) (SEQ ID NO:40), nor a peptide with the reverseequence, Ilantafin rev-d (AQMKSSKRGS) (SEQ ID NO:41) inhibit the activation of NF-KB induced by IL1β”.
“EGVMVTKFYFQED-OH [Ilantafin-5, EGVMVTKFYFQED]”: the solubility entry in data set [1] is “completely insoluble when produced”.
Turning to “IL1Ra: IL-1 receptor antagonist protein; commercial IL1Ra used as positive control”, the “inhibition of NF-κB activation induced by IL1β” value in data set [2] is given as “inhibitory effect”. Besides, the “inhibition of TNFα secretion by IL1β-activated macrophages” value (“inhibition of TNFα secretion” for short) in [3] is reported as “also inhibit macrophage activation”. In addition, the neurite outgrowth result in data set [4] was “induce neurite outgrowth in primary cerebellar neurons in a dose-dependent manner”.
In the case of “IL1β: Interleukin-1 beta, pro-inflammatory cytokine, agonist of the IL1 receptor [listing 1 of 2 here]”, the “Kb (s^-1)” value in [5] is recorded as 2.69 ± 0.58 x 10^-3 s^-1. In addition, in [6], the “ka (M^-1s^-1)” value was 1.84 ± 0.20 x 10^5 M^-1s^-1.
“IL1β: Interleukin-1 beta, pro-inflammatory cytokine, agonist of the IL1 receptor [listing 2 of 2 here]”: the neurite outgrowth entry in [4] is listed as “does not affect neuritogenesis”. The “effect on Ilantafin- and IL1Ra-induced neurite outgrowth” value in data set [4] (co-treatment) is “inhibits Ilantafin- and IL1Ra induced neurite outgrowth”.
Turning to “KASQKGMSRS (listed as Homo sapiens) [Ilantafin scr-d2, reference compound]”, the “inhibition of NF-κB activation induced by IL1β” value in data set [2] is given as “neither two peptides with scrambled sequences, Ilantafin scr-d1 (KQSAGKRSMS) (SEQ ID NO:39), Ilantafin scr-d2 (KASQKGMSRS) (SEQ ID NO:40), nor a peptide with the reverseequence, Ilantafin rev-d (AQMKSSKRGS) (SEQ ID NO:41) inhibit the activation of NF-KB induced by IL1β”.
Take “KQSAGKRSMS (listed as Homo sapiens) [Ilantafin scr-d1, reference compound]”: the “inhibition of NF-κB activation induced by IL1β” value in data set [2] is “neither two peptides with scrambled sequences, Ilantafin scr-d1 (KQSAGKRSMS) (SEQ ID NO:39), Ilantafin scr-d2 (KASQKGMSRS) (SEQ ID NO:40), nor a peptide with the reverseequence, Ilantafin rev-d (AQMKSSKRGS) (SEQ ID NO:41) inhibit the activation of NF-KB induced by IL1β”.
For NQKTFYLRNNQL-OH [Ilantafin-6], in data set [1], the “solubility in PBS or medium” value is “not soluble in PBS or medium” and the solubility in water result is on record as “soluble in water”.
Turning to NQLVAGYLQGPNVN-OH [Ilantafin-3], the solubility in water result in data set [1] is given as “not soluble in water”.
Take “SGRKSSKMQA (also: tetrameric dendrimer; listed as Homo sapiens) [Ilantafin-d]”: the “inhibition of NF-κB activation induced by IL1β” value in data set [2] is “inhibitory effect”. In addition, the “effect on STAT signalling induced by IL6” value in [7] is listed as “does not affect the activation of STAT signalling induced by IL6”. Further, in data set [3], the “inhibition of TNFα secretion” value is recorded as “inhibitory effect”. In data set [8], the “neuronal survival / cell death (apoptosis) induced by lowering potassium” value is “promotes survival of cerebellar granule neurons”. For the same molecule, in data set [9], the “clinical manifestations (clinical score) of CIA” value is recorded as “abrogated an increase in clinical manifestations of the disease”.
Consider SGRKSSKMQA-OH [Ilantafin-m], for which the “inhibition of NF-κB activation induced by IL1β” value in data set [2] is “inhibitory effect”. For the same molecule, the “inhibition of TNFα secretion” value in data set [3] is reported as “inhibitory effect”. Further, the “neuronal survival / cell death (apoptosis) induced by lowering potassium” value in [8] is “promotes survival of cerebellar granule neurons”.
Consider VTKFYFQED-OH [Ilantafin-4, VTKFYFQED], for which the solubility in water result in data set [1] was “not soluble in water”.

B1: SIL1RI: soluble IL1 receptor type 1 protein, positive control (protein)
chain: LEADKCKEREEKIILVSSANEIDVRPCPLNPNEHKGTITWYKDDSKTPVSTEQASRIHQHKEKLWFVPAKVEDSGHYYCVVRNSSYCLRIKISAKFVENEPNLCYNAQAIFKQKLPVAGDGGLVCPYMEFFKNENNELPKLQWYKDCKPLLLDNIHFSGVKDRLIVMNVAEKHRGNYTCHASYTYLGKQYPITRVIEFITLEENKPTRPVIVSPANETMEVDLGSQIQLICNVTGQLSDIAYWKWNGSVIDEDDPVLGEDYYSVENPANKRRSTLITVLNISEIESRFYKHPFTCFAKNTHGIDAAYIQLIYPVTNFQK
As for B1, the “inhibition of NF-κB activation induced by IL1β” value in data set [2] is recorded as “inhibitory effect”. In addition, in data set [3], the “inhibition of TNFα secretion” value was “also inhibit macrophage activation”. In data set [4], the neurite outgrowth result was “induce neurite outgrowth in primary cerebellar neurons in a dose-dependent manner”.
